# Where two headings read alike, the source gives them in different places.
# Tests used:
# Huh-7 cells [1] = experiment: real-time RT-PCR gene expression; assay type: cell-based, human; conditions: HG 72 h; 25HC3S 6.25-50 μM, 1-8 hours
# Protocol: FIGS. 3A-3D. Expression of key genes related to signaling pathways. […] Key Genes and their targeting genes expression were determined by RT-PCR analysis. […] Each sample, 2 μg, was sent to […], Inc. (Hopkinton, MA) for analysis of global methylation bisulfite sequencing. The same samples, 6 μg, were sent to Novogene Co., Ltd (Tianjin, China) for analysis of whole genome bisulfite sequencing (WGBS). Total RNA was isolated using the Promega SV total RNA isolation system (Madison, WI) with DNase treatment. […] Real-time RT-PCR was performed using SYBR Green as the indicator on ABI 7500 Fast Real-Time PCR System (Applied Biosystems, Foster City, CA). Amplifications of β-actin or GAPDH were used as internal controls. Relative messenger RNA (mRNA) expression was quantified with the comparative cycle threshold (Ct) method using the primer set shown in Table 1.1 and was expressed as 2^-ΔΔCt.
# Huh-7 cells [2] = experiment: whole genome bisulfite sequencing (WGBS), 5mCpG demethylation in promoter regions; assay type: cell-based, human
# Protocol: Each sample, 2 μg, was sent to EpigenDx, Inc. (Hopkinton, MA) for analysis of global methylation bisulfite sequencing. The same samples, 6 μg, were sent to Novogene Co., Ltd (Tianjin, China) for analysis of whole genome bisulfite sequencing (WGBS). Total RNA was isolated using the Promega SV total RNA isolation system (Madison, WI) with DNase treatment. Each sample, 2 μg, was used for the first-strand cDNA synthesis as recommended by the manufacturer (Invitrogen, Carlsbad, CA). Real-time RT-PCR was performed using SYBR Green as the indicator on ABI 7500 Fast Real-Time PCR System (Applied Biosystems, Foster City, CA). Amplifications of β-actin or GAPDH were used as internal controls. Relative messenger RNA (mRNA) expression was quantified with the comparative cycle threshold (Ct) method using the primer set shown in Table 1.1 and was expressed as 2^−ΔΔCt.
# Each sample, […] of genomic DNA spiked with 26 ng lambda DNA, was fragmented by sonication to 200-300 bp with Covaris S220, followed by end repair and adenylation. Cytosine-methylated barcodes were ligated to sonicated DNA per the manufacturer's instructions. These DNA fragments were treated twice with bisulfite using EZ DNA Methylation-Gold™ Kit (Zymo Research) before the resulting single-strand DNA fragments were PCR amplified using KAPA HiFi Hot Start Uracil and Ready Mix (2×). Library concentration was quantified by Qubit® 2.0 Flurometer (Life Technologies, CA, USA) and quantitative PCR, and the insert size was assayed on an Agilent Bioanalyzer 2100 system.
# The library preparations were sequenced on an Illumina Hiseq 2500/4000 or Novaseq platform and 125 bp/150 bp paired-end reads were generated. Image analysis and base calling were performed with Illumina CASAVA pipeline. Trimmomatic (Trimmomatic-0.36) software was used for quality control. Bismark software (version 0.16.3; Krueger F, 2011) was used to perform alignments of bisulfite-treated reads to a reference genome (−X 700-dovetail). DSS software (23) was used to identify differentially methylated regions (DMRs). KOBAS software was used to test the statistical enrichment of DMR related genes in the Kyoto Encyclopedia of Genes and Genomes (KEGG) pathways.
# Each sample (6 μg) was used for analysis of the whole genome bisulfite sequencing (WGBS).
# [3] = Phase 1b 4-week oral dosing study in NASH patients: pharmacokinetics; assay type: in vivo, human; conditions: for AUC(0-t) / Cmax / half-life / Tmax: both sexes, human, plasma, oral; for AUC(0-t): read-out: AUC(0-T), mean (standard deviation); for Cmax: read-out: Cmax, mean (standard deviation); for half-life: read-out: T1/2, mean (standard deviation) (converted); for Tmax: read-out: Tmax, mean (standard deviation)
# Text: A total of 63 patients completed the study with 21 patients per dose group (completion of MRI-PDFF measurement). […] Subjects provided written informed consent to participate in the study • 2. Males or females subjects 18 years or older, at the time of signing informed consent • 3. BMI 20-45 kg/m^2 • 4. […] Value of Fibroscan®≥7 kPa • OR • b. MRE≥2.75 kPa • Clinical diagnosis of NASH was defined in this clinical trial as the existence of one or more of the following risk factors for NASH, namely: • a. Type 2 diabetes or elevated fasting blood sugar • b. Abdominal obesity • c. Elevated lipid levels, especially elevated levels of serum triglycerides • d. Hypertension, or • e. Low levels of HDL cholesterol • 5. For serum transaminases, ALT concentration for all patients at the time of screening was >1 and <5 times upper limit of normal (ULN) of the central lab in the absence of another cause of liver disease. If a patient had lab records in the past 6 months, ALT concentrations were <20 U/L female and <30 U/L male. AST concentration for all patients at the time of screening was <5× ULN • 6. […] Platelet counts≥120,000/mm^3 • 8. Female subjects were eligible for the study if they met the following criteria: • Are not pregnant or nursing • Women of child-bearing potential (defined as females who are not surgically sterile or who are not over the age of 52 and amenorrheic for at least 12 months) must utilize appropriate birth control throughout the study duration. Acceptable methods that may be used are abstinence, birth control pills (“The Pill”) or patch, diaphragm, IUD (coil), vaginal ring, condom, surgical sterilization or progestin implant or injection, or sexual activity limited to a sterile (e.g., vasectomized) male partner • 9. Male participants agreed to consistently and correctly use a condom in combination with one of the above methods of birth control from enrolment to 30 days after the last dose of study medication • 10. Participants were able to comply with dosing and able to complete the study schedule of assessments
# [4] = metabolite profiling of plasma, urine, feces after intravenous dose; conditions: rats 10 mg/kg intravenous
# Protocol: Samples were profiled using high performance liquid chromatography with radiodetection and metabolic characterization was performed using mass spectrometry and tandem mass spectrometry analysis.
structure (smiles),measurement,setting,value
"C[C@H](CCCC(C)(C)O)[C@H]1CC[C@H]2[C@@H]3CC=C4C[C@@H](OS(=O)(=O)O)CC[C@]4(C)[C@H]3CC[C@]12C [25HC3S, 25-hydroxycholesterol-3-sulfate]","CREB5 expression, increase",Huh-7 cells [1],up to 20 fold
same,"DUSP8 expression, increase",Huh-7 cells [1],5 fold
same,"FAS expression, decrease",Huh-7 cells [1],~90%
same,"HMGR expression, decrease",Huh-7 cells [1],~90%
same,"PGC1A expression, increase",Huh-7 cells [1],12 fold
same,"genes demethylated in promoter regions, Calcium signaling pathway","Huh-7 cells [2]; HG 72 h, then 25HC3S 4 h",19 genes
same,"genes demethylated in promoter regions, MAPK signaling pathway","Huh-7 cells [2]; HG 72 h, then 25HC3S 4 h",23 genes
same,"genes demethylated in promoter regions, cAMP signaling pathway","Huh-7 cells [2]; HG 72 h, then 25HC3S 4 h",28 genes
same,genes with 5mCpG converted to CpG in promoter regions,Huh-7 cells [2]; high glucose model,1074 genes
same,"CL/F, mean (standard deviation)",[3]; 50 mg QD (n = 22),150.6 (51.5) L/h
same,"CL/F, mean (standard deviation)",[3]; 150 mg QD (n = 21),176.6 (80.5) L/h
same,"CL/F, mean (standard deviation)",[3]; 300 mg BID (n = 21),166.2 (60.4) L/h
same,AUC(0-t),[3]; 50 mg QD (n = 22),340 ng·h/mL
same,Cmax,[3]; 50 mg QD (n = 22),79.1 ng/mL
same,half-life,[3]; 50 mg QD (n = 22),2.7 h
same,Tmax,[3]; 50 mg QD (n = 22),2.4 h
same,AUC(0-t),[3]; 150 mg QD (n = 21),1040 ng·h/mL
same,Cmax,[3]; 150 mg QD (n = 21),274 ng/mL
same,half-life,[3]; 150 mg QD (n = 21),2.7 h
same,Tmax,[3]; 150 mg QD (n = 21),2 h
same,AUC(0-t),[3]; 300 mg BID (n = 21),2140 ng·h/mL
same,Cmax,[3]; 300 mg BID (n = 21),430 ng/mL
same,half-life,[3]; 300 mg BID (n = 21),2.4 h
same,Tmax,[3]; 300 mg BID (n = 21),2.3 h
same,% of dose in feces,[4]; pools 0 to 48 hours,2%
same,share of the exposure (AUC) to 25HC3S related radioactivity in plasma,[4]; up to 1 hour post-dose,approximately 54%

# Source: patent publication US12642805B2, “Use of oxygenated cholesterol sulfates for treating at least one of insulin resistance, diabetes, and prediabetes” (Medicis Pharmaceutical Corporation, priority 2020, dated 2026)
